{
  "source": "patent US12527764B2",
  "about": "“Methods and compositions for treating androgen receptor deficient, androgen receptor low, and castration-resistant prostate cancers” (FRED HUTCHINSON CANCER CENTER, priority 2019, dated 2026)",
  "key": {"[1]": {"test_system": "AR− APIPC xenograft", "experiment": "AR− APIPC xenograft preclinical trial", "format": "in vivo", "settings": "15 mg/kg intraperitoneal", "method": "(§1) 1×10^6 AR+ parental and AR− APIPC cells were resuspended 1:1 in Matrigel (Corning): RPMI-1640 (Gibco) and subcutaneously injected into the flanks of intact or castrate NOD-scid IL2Rgamma^null mice respectively. 1×1×1 mm^3 of LuCaP 173.2 tumor chunks were implanted into the flank of castrate mice. Tumor volume was calculated using the formula (L(W^2))/2, where L is the length of the tumor and W the width. When tumors reached 100 mm^3, animals were randomized to receive intraperitoneal injections of 15 mg/kg 4E1RCat (Selleckchem) or vehicle (5.2% PEG400 and 5.2% TWEEN80 in ddH2O), Monday-Friday."}, "[2]": {"test_system": "AR-null non-neuroendocrine LuCaP 173.2 PDX", "experiment": "LuCaP 173.2 PDX preclinical trial", "format": "in vivo", "settings": "15 mg/kg intraperitoneal", "method": "as §1"}, "[3]": {"test_system": "AR+ parental APIPC xenograft", "experiment": "AR+ parental APIPC xenograft preclinical trial", "format": "in vivo, intact NOD-scid IL2Rgamma^null mice", "settings": "uncastrated mice, 15 mg/kg intraperitoneal, versus vehicle", "method": "as §1"}, "[4]": {"test_system": "primary intact (DHT+) Pten^L/L cells", "experiment": "IncuCyte in vitro proliferation assay, primary intact Pten^L/L cells", "format": "cell-based, mouse", "settings": "48 hours, same drug concentrations as in castrate cells", "method": "(§2) Human APIPC cell lines were provided by P.S.N., and grown as previously described (11). PC3-4EBP1^M, VCaP, 22Rv1, C4-2, and LNCaP cells were cultured in RPMI-1640 with 10% FBS or phenol-red free RPMI with 10% charcoal stripped FBS (Gemini). Intact/castrate […] mouse prostates were harvested at 16 weeks of age, micro-dissected, and minced using a scalpel. Tissue chunks were incubated in 5 mg/ml collagenase II (Gibco) in Dulbecco's modified Eagle's medium for 1 hour at 37° C., followed by 5 min further digestion with TrypLE (Thermo Fisher). The dissociated cells were passed through a 40 µm nylon mesh (Falcon) to obtain single cells. Twenty thousand cells were embedded in 50 μl of Matrigel (Corning) and plated on 24-well ultra-low attachment plates (Corning). Medium components include the following: Advanced Dulbecco's Modified Eagle Medium containing B-27 supplement (Gibco), 1.25 mM N-Acetyl-L-cysteine (Sigma), 50 ng/ml EGF (Peprotech), 200 nM A83-01 (Tocris Bioscience), 500 ng/ml R-spondin1 (conditioned medium and R-spondin1 expressing plasmid provided by Y.C.), 10 μM Y-27632 (Sigma), and 100 ng/ml Noggin (Peprotech). […] Established organoids were passaged as 3D organoids or cultured as 2D cells. […] Cell proliferation was monitored by analyzing the occupied area (% confluence) of cell images over time. […]"}, "[5]": {"test_system": "primary castrate (DHT−) Pten^L/L cells", "experiment": "IncuCyte in vitro proliferation assay, primary castrate Pten^L/L cells", "format": "cell-based, mouse", "settings": "48 hours, same drug concentrations as in intact cells", "method": "as §2"}, "[6]": {"test_system": "AR− APIPC prostate cancer cells", "experiment": "IncuCyte in vitro proliferation assay, AR+ parental versus AR− APIPC prostate cancer cells", "format": "cell-based, human", "settings": "AR-null APIPC cells compared with parental (AR+) cells, 48 hours", "method": "as §2"}, "[7]": {"target": "T1, eIF4E-eIF4G interaction (eIF4F complex) (Mus musculus, UniProt P63073)", "T1 construct": "Pten^L/L intact and castrate cells were treated with 50 μM 4E2RCat (MedChemExpress) and 20 μM 4EGI-1 (Selleckchem) for 24 hours; endogenous in cells; host or cells: primary intact and castrate Pten L/L mouse prostate cancer cells", "T1 sequence (P63073 whole entry, one chain of several)": "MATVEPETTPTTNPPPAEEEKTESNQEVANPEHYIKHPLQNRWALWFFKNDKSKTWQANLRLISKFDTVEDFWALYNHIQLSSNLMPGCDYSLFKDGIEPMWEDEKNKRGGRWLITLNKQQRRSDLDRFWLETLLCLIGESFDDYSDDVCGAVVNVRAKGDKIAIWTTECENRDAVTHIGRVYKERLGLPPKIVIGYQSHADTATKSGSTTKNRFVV", "experiment": "eIF4E-eIF4G proximity ligation assay in intact and castrate Pten^L/L cells", "format": "cell-based", "settings": "50 μM, 24 hours", "method": "(§3) The in-situ proximity ligation assay (PLA) was optimized to detect eIF4E-eIF4G or eIF4E-4EBP1 interactions in intact/castrate Pten^L/L and castrate Pten^L;4ebp1^M FFPE tissue sections and adherent cells. FFPE sections were deparaffinized, rehydrated, and subjected to antigen retrieval in a decloaking chamber at 95° C. for 30 min in Tris-based antigen unmasking solution, pH 9 (Vector). After 30 min blocking, primary antibody incubation was performed at 4° C. overnight: eIF4E (SCBT), eIF4G (CST), and 4EBP1 (CST).\n(§4) Adherent cells were grown on coverslips placed in 6-well plates until 60-70% confluent. […] Permeabilized cells were washed using 1× wash buffer followed by 1 hour blocking in a humidity chamber at 37° C. Next, cells were incubated with primary antibodies: eIF4G (CST) and eIF4E (BD Biosciences) for 2 hours at room temperature.\n(§5) After incubation with primary antibody, both FFPE tissues and adherent cells were subjected to incubation with secondary antibodies conjugated to oligonucleotides (PLA plus/minus probes) for 1 hour at 37° C. The two hybridized oligonucleotides were joined in a closed circle using a ligase at 37° C. for 30 min. The DNA was then amplified with rolling circle amplification, and detection of the amplicons was carried out using the Brightfield detection kit (Sigma)."}, "[8]": {"target": "eIF4E-eIF4G interaction (eIF4F complex) (Homo sapiens, UniProt P06730)", "sequence (P06730 whole entry, one chain of several)": "as the sequence (P63073 whole entry, one chain of several) above, with T12P, P16T, A17T, D174E counted along it", "experiment": "eIF4E-eIF4G proximity ligation assay in AR+ parental and AR− APIPC cells", "format": "cell-based", "settings": "10 μM, 24 hours", "method": "as §3, §4, §5"}, "[9]": {"test_system": "de novo protein synthesis", "settings": "castrate Pten^L/L primary prostate cancer cells, 1 nM DHT add back, 48 hours", "experimental": "FIG. 9D is a representative western blot of puromycin incorporation with or without addition of 1 nM DHT for 48 hours, which increases AR signaling, in castrate Pten^L/L primary prostate cancer cells (representative of 4 biological replicates).\nCells were lysed for 30 min on ice in lysis buffer containing 150 mM NaCl, 50 mM Tris, 4 mM KCl, 1 mM MgCl2 1 mM Na3VO4 10% glycerol, 1% Nonidet P-40, supplemented with phosphatase and protease inhibitor cocktails (Roche). Lysates were cleared by centrifugation at 12000 rpm for 15 min at 4° C. Supernatants were removed and assayed for protein concentration using the Protein Assay Dye Reagent (Bio-Rad). Equal amounts of proteins were subjected to SDS-PAGE and transferred to PVDF membranes (Bio-Rad). Membranes were blocked with 5% non-fat milk in PBS-Tween and were subsequently incubated with the following antibodies at 4° C. overnight: AR (N-terminus, Abcam), AR (C-terminus, SCBT), AR (GeneTex), p-AKT (S473, CST), p-AKT (T308, CST), eIF4E (BD Biosciences), eIF4A (CST), eIF4G (CST), 4EBP1 (CST), p-4EBP1 (Thr37/46, CST), KLF5 (Abcam), DENR (GeneTex), CACUL1 (GeneTex) FLAG (Sigma), RPS15 (Abcam), PTEN (CST), synaptophysin (CST), chromogranin A (Abcam). […] Signal detection was performed using the ChemiDoc Touch Imaging System (Bio-Rad) or standard film, and quantified using ImageJ."}, "[10]": {"test_system": "4ebp1 transcript expression", "experiment": "4ebp1 transcript expression in castrate Pten^L/L cells under enzalutamide", "format": "cell-based, mouse", "settings": "further inhibition of AR", "method": "Total RNA was isolated using RNeasy Plus Mini Kit (Qiagen) and reverse-transcribed with iScript Reverse Transcription Supermix (Bio-Rad). cDNA was diluted 1:1 with water. Quantitative PCR was performed with 1 μl cDNA using SsoAdvanced SYBR Supermix (Bio-Rad) with primer sets specific for Ar, 4ebp1, Cacul1, Denr, Klf5, Rps15, Gapdh, luciferase, RPS19, and actin (Table 3). Normalized mRNA expression was calculated using the comparative Ct method."}, "[11]": {"settings": "castrated mice, Monday-Friday, versus vehicle"}},
  "data": [
    {"smiles": "O=C(O)c1ccc(N2C(=O)/C(=C/c3ccc(-c4ccc([N+](=O)[O-])cc4)o3)C=C2c2ccccc2)cc1", "note": "[4E1RCat, 4-[(3E)-3-[[5-(4-nitrophenyl)furan-2-yl]methylidene]-2-oxo-5-phenylpyrrol-1-yl]benzoic acid]", "values": [
      {"measurement": "toxicity to mice (body weight)", "setting": "[1]; castrated NSG mice", "result": "without overt toxicity"},
      {"measurement": "survival", "setting": "[1]; [11]", "result": "improvement"},
      {"measurement": "tumor growth", "setting": "[1]; [11]", "result": "marked decrease"},
      {"measurement": "toxicity to mice (body weight)", "setting": "[2]; castrated NSG mice", "result": "without overt toxicity"},
      {"measurement": "survival", "setting": "[2]; [11]", "result": "improvement"},
      {"measurement": "tumor growth", "setting": "[2]; [11]", "result": "marked decrease"},
      {"measurement": "tumor growth (sensitivity of the model)", "setting": "[3]", "result": "completely insensitive"}
    ]},
    {"smiles": "O=C(O)c1cc(-c2ccc(/C=C3/SC(=S)N(Cc4ccccc4)C3=O)o2)ccc1Cl", "note": "[4E2RCat, 5-[5-[(E)-(3-Benzyl-4-oxo-2-sulfanylidene-1,3-thiazolidin-5-ylidene)methyl]furan-2-yl]-2-chlorobenzoic acid]", "values": [
      {"measurement": "effect on cell proliferation", "setting": "[4]", "result": "negligible effects"},
      {"measurement": "effect on cell proliferation", "setting": "[5]", "result": "profound changes"},
      {"measurement": "sensitivity of proliferation to eIF4E-eIF4G disruption", "setting": "[6]", "result": "more sensitive"},
      {"measurement": "eIF4F complex formation (proximity ligation assay)", "setting": "[7]", "result": "disrupt eIF4F complex formation"},
      {"measurement": "eIF4F complex formation (proximity ligation assay)", "setting": "[8]", "result": "disrupt eIF4F complex formation"}
    ]},
    {"smiles": "O=C(O)C(Cc1ccccc1[N+](=O)[O-])=NNc1nc(-c2ccc(Cl)c(Cl)c2)cs1", "note": "[4EGI-1, α-[2-[4-(3,4-Dichlorophenyl)-2-thiazolyl]-hydrazinylidene]-2-nitrobenzene-propanoic acid]", "values": [
      {"measurement": "effect on cell proliferation", "setting": "[4]", "result": "negligible effects"},
      {"measurement": "effect on cell proliferation", "setting": "[5]", "result": "profound changes"},
      {"measurement": "sensitivity of proliferation to eIF4E-eIF4G disruption", "setting": "[6]", "result": "more sensitive"}
    ]},
    {"smiles": "C[C@]12CCC(=O)C[C@@H]1CC[C@@H]1[C@@H]2CC[C@]2(C)[C@@H](O)CC[C@@H]12", "note": "[DHT, dihydrotestosterone]", "values": [
      {"measurement": "de novo protein synthesis (puromycin incorporation)", "setting": "[9]", "result": "decreases"}
    ]},
    {"smiles": "CNC(=O)c1ccc(N2C(=S)N(c3ccc(C#N)c(C(F)(F)F)c3)C(=O)C2(C)C)cc1F", "note": "[enzalutamide]", "values": [
      {"measurement": "4ebp1 transcript expression", "setting": "[10]", "result": "does not impact"}
    ]}
  ]
}
